≈ marks a conversion by molar mass, not a printed value. Where two headings read alike, the source gives them in different places.
Legend:
Format in all cases: in vivo
Tetranychus Urticae = assay: Acaricide study on Tetranychus Urticae; settings: 72 h, read-out: LC50, Tetranychus
Description: Bean plants were used comprising 2 leaves infested with 30 females of Tetranychus Urticae per leaf and put under an aerated hood under a lighted ceiling which was constantly on. The plants were treated with a Fisher gun with 4 ml of toxic solution per plant of a mixture with an equal volume of water and acetone. After leaving to dry for half an hour the infestation was proceeded with and mortality checks were carried out at the end of 3 days. The LC50 dose was determined and the results are set out in the table below, taking account of the following values: […]

Plasmopara viticola = assay: Fungicide activity: tests on Plasmopara viticola (vine plants, leaf spray); settings: 100 ppm of active material, relative to non-treated control; for % of effectiveness on plasmopara viticola, Grenache vine: ten days after contamination
Description: Young vine plants from cuttings (Grenache N variety, clone 70) were cultivated in a greenhouse (daytime temperature: 30° C., night-time temperature: 25° C.) on an earth/compost/sand mixture, (1/3-1/3-1/3). Two days before the test, the plants were moved into a culture chamber with the same temperature conditions and humidity 60% in the day, 80% at night. The product was dissolved in "matrix A" at a concentration of 100 ppm just before use. The treatment took place by spraying the solution on the leaves until saturation Contamination was carried out with a suspension of zoospores of Plasmopara viticola taken immediately before the test using 50,000 zoospores per ml. Drops of suspension (20 micro-liters) were deposited on the abaxial surface of the leaves. The plants were then kept for 24 hours in an atmosphere saturated with water-vapour. Then, the atmosphere was returned to the humidity of the culture chamber (60% in the day, 80% at night). The reading was taken ten days after contamination by measuring the development of clusters of sporangiophores on the abaxial surface of the leaves. The effectiveness of the product was calculated relative to a non-treated control. The same type of test was carried out on a Chardonnay vine.
The results obtained in % of effectiveness on plasmopara viticola at 100 ppm of active material were as follows: […]

[1] = system: Spodoptera Littoralis (L3 stage larvae); assay: whole plant or invertebrate; settings: 168 h, read-out: LC50, Spodoptera
Description: L3 stage SPODOPTERA LITTORALIS larvae were used and the operation was carried out at 22° C. at relative humidity conditions of 50%. Petri dishes were used containing a damp circular piece of filter paper and in each dish, two bean plant leaves were placed and treated with hydroacetonic solution (50-50) containing the product under test. The dead larvae were counted at the end of 7 days and the concentration LC50 were expressed in ppm.

Musca Domestica (Fly) = assay: Insecticide activity: lethal effect on Musca Domestica (topical application); settings: 6-day-old female flies, topical application of acetone solution on dorsal thorax, 22° C.
Description: 6-day-old female flies weighing 18 to 20 mg were used and the operation was carried out at 22° C. at relative humidity conditions of 50%. The products were administered by topical application of an acetone solution of 1 g/l on the dorsal thorax of the insects. The LC50 dose was determined and was expressed in ppm.

Aphis Cracivora = assay: Insecticide activity: activity on Aphis Cracivora; settings: female apter on sprayed broad bean leaves, 24 hours
Description: 2 ml of water acetone solution (50/50) was sprayed on broad bean leaves (vicia fabae) until the leaves were running with solution. After drying, 15 female apter of Aphis cracivora were deposited on the leaves and the mixture was kept on the damp filter paper inside a Petri dish. 24 hours after the start of contact, the number of dead insects was determined and the LC50 dose expressed in ppm were determined.

[2] = females on treated bean plants, 3 days
[3] = L3 larvae, contact and ingestion, treated bean leaves, 7 days, 22° C.

Compound	LC50 (Tetranychus Urticae; [2])	% of effectiveness on plasmopara viticola, Grenache vine (Plasmopara viticola)	LC50 [1, 3]	LC50 (Musca Domestica (Fly))	other results
CO/C=C(\C(=O)OC)c1cccc2cc(-c3ccc(OC)cc3)oc12 [1 (Z)]	< 250 µg/mL	100%	250 to 1000 µg/mL (≈ 739 to 2960 µM)		
CO/C=C(/C(=O)OC)c1cccc2cc(-c3cccc(OC)c3)oc12 [2 (E)]		100%			% of effectiveness on plasmopara viticola, Chardonnay vine (Plasmopara viticola): 100%
CO/C=C(/C(=O)OC)c1cccc2cc(-c3ccccc3)oc12 [3 (E)]			250 to 1000 µg/mL (≈ 811 to 3240 µM)		
CO/C=C(\C(=O)OC)c1cccc2cc(-c3ccccc3)oc12 [3 (Z)]			250 to 1000 µg/mL (≈ 811 to 3240 µM)		
CO/C=C(/C(=O)OC)c1cccc2cc(-c3ccccc3Cl)oc12 [10 (E)]		100%			% of effectiveness on plasmopara viticola, Chardonnay vine (Plasmopara viticola): 90%
CO/C=C(/C(=O)OC)c1cccc2cc(-c3ccc(Cl)cc3)oc12 [12 (E)]	< 250 µg/mL	100%		< 250 µg/mL	% of effectiveness on plasmopara viticola, Chardonnay vine (Plasmopara viticola): 100%
CO/C=C(/C(=O)OC)c1cccc2cc(-c3ccc(Br)c(C(F)(F)F)c3)oc12 [14 (E), Methyl α[(E)methoxymethylene1-2-4-bromo-3-(trifluoromethyl)-phenyl]benzofuran acetate]	< 250 µg/mL		250 to 1000 µg/mL	< 250 µg/mL	
CO/C=C(/C(=O)OC)c1cccc2cc(-c3ccc(Cl)c(OC)c3)oc12 [15 (E)]	250 to 1000 µg/mL (≈ 671 to 2680 µM)		250 to 1000 µg/mL (≈ 671 to 2680 µM)	< 250 µg/mL	LC50 (Aphis Cracivora): < 250 µg/mL
CO/C=C(/C(=O)OC)c1cccc2cc(-c3csc(C(C)C)n3)oc12 [16 (E), Methyl α-(E)methoxymethylene1-7-[2-[4-(2-isopropylthiazolyl)-benzofuranyl]-acetate]	< 250 µg/mL				
CO/C=C(/C(=O)OC)c1cccc2cc(-c3ccc4c(c3)OCO4)oc12 [17 (E), Methyl α[(E)-methoxymethylene1-2-(3,4-methylenedioxy)-phenyl-7-benzofuran acetate]			< 250 µg/mL	< 250 µg/mL	
CCCCc1cc2cccc(/C(=C\OC)C(=O)OC)c2o1 [18 (E), Methyl α[(E)-methoxymethylene1-2-butyl-7-benzofuran acetate]	< 250 µg/mL				LC50 (Aphis Cracivora): < 250 µg/mL
CO/C=C(/C(=O)OC)c1cccc2cc(-c3csc(-c4ccc(OC(F)(F)F)cc4)n3)oc12 [19 (E), Methyl α[(E)-methoxymethylene]-2-[2-[4-(trifluoromethyxy)-pehny]-4-thiazolyl]-7-benzofuran acette]			< 250 µg/mL		
CO/C=C(/C(=O)OC)c1cccc2cc(-c3cccc(Oc4ccccc4)c3)oc12 [24 (E), Methyl α-[(E)-methoxymethylene]-2-(3-phenoxyphenyl) -7-benzofuran acetate]				< 250 µg/mL	
CO/C=C(/C(=O)OC)c1cccc2cc(-c3ccc(Oc4ccccc4)cc3)oc12 [25 (E), Methyl α-[(E)-methoxymethylene]-2-(4-phenoxyphenyl) -7-benzofuran acetate]				< 250 µg/mL	
CO/C=C(/C(=O)OC)c1cccc2cc(-c3ccc(OC)cc3)oc12 [Example 1 (E), Methyl α-[(E)-methoxymethylene]-2-(4-methoxy-phenyl)-7-benzofuranacetate]		90%			LC50 (Tetranychus Urticae): < 250 µg/mL; LC50 [1]: 250 to 1000 µg/mL (≈ 739 to 2960 µM)
CO/C=C(/C(=O)OC)c1cccc2cc(-c3cccc(Cl)c3)oc12 [Example 11 (E)]		100%	250 to 1000 µg/mL (≈ 729 to 2920 µM)		% of effectiveness on plasmopara viticola, Chardonnay vine (Plasmopara viticola): 100%

Reference: patent US5182295A, “Insecticidal benzofuran derivatives” (Roussel Uclaf, priority 1990, dated 1993)
